Data published in patent US20250120971A1, “NOVEL DRUG TREATMENT OF COGNITIVE IMPAIRMENTS ASSOCIATED WITH SCHIZOPHRENIA” (FLORIDA ATLANTIC UNIVERSITY BOARD OF TRUSTEES, priority 2021, published 2025).
“Also recorded” adds a separate entry of the source.

Tests used:
[1] = tested on: rat model of repeated stress; conditions: cited from earlier work
[2] = tested on: KET mouse model of psychosis; experiment: Object recognition memory task after intrahippocampal (CA1) microinfusion; assay type: in vivo; conditions: KET mice; CyPPA 1 μg/μl bilateral intra-CA1 pre-sample; test 24 h later
[3] = tested on: KET mouse model of psychosis; experiment: Trace fear conditioning and tone test; assay type: in vivo; conditions: for discrimination ratio of % freezing (trace vs CS intervals) (Mdn): CyPPA 15.0 mg/kg IP 30 min before trace fear conditioning
Protocol: Systemic Administration of the SK2 Activator. Two groups of KET mice and two groups of SAL mice were randomly assigned to receive either VEH or CyPPA (15.0 mg/kg) IP 30 min prior to a trace fear conditioning session.
Trace fear conditioning was performed using a MED Associates Near-Infrared Video Fear Conditioning System (Georgia, VT) composed of four identical rectangular conditioning chambers (30.5 cm by 24.1 cm by 21 cm) constructed of brushed aluminum side walls and clear Plexiglas front, back and top walls. Each chamber was illuminated by an overhead white house light and an infrared light. An audio speaker attached to the right-side wall of each chamber delivered the tone stimuli. The chamber floor was constructed of parallel stainless-steel rods (36 rods, 3.2 mm dia, 7.9 mm apart) designed for mice, and connected to a scrambled shock generator. Each conditioning chamber was housed inside a larger sound-attenuating cabinet with a ventilation fan in the right-side wall used to provide background noise. A near-infrared FireWire video camera, mounted on the left front door of each noise-attenuating cabinet, was used to acquire mouse behavior. Before each trial, the chamber floors were cleaned thoroughly with a 70% ethanol solution, then with 1% LiquiNox (White Plains, New York) to reduce olfactory cues.
Freezing responses were recorded and automatically scored during the conditioning session to assess the strength of fear memory. The automatic software program operationally defined freezing as the duration of time, greater than 0.6 s, during which fewer than 20 pixels of each video frame were detected to have changed. […] All final freezing responses were hand scored to ensure accuracy.
Trace Fear Conditioning Session. Mice received a systemic injection of CyPPA or VEH and then were placed individually into empty holding cages. Thirty min later, mice were placed individually into a distinct conditioning chamber with an odor cue. […] (FIG. 4A). Mice were removed from the chamber 60 s. after the presentation of the 8th US.
Trace Fear Memory Tone Test. To assess retention of trace fear memory after a 24-hour delay, mice received a mock IP injection before being placed in the polycarbonate cage. After 30 min, mice were placed into modified conditioning chambers and after a 60 s. delay, were presented with the identical tone CS as in the conditioning session. […] Mice were removed 30 s. after termination of the last CS. The context of chamber was modified before the tone test by installing an inverted V-shaped Plexiglas insert to change the geometry of the side walls and ceiling, a floor shield, 1% acetic acid, and lighting filter.
Statistical Analysis. […] To examine whether KET differentially influenced the perception of the aversive foot shock stimulus, an activity burst ratio was computed for each mouse by dividing the motion score for the first shock interval, 1 s, +1 s. post shock by the motion score for a 2-s interval from the initial 60 s. of the conditioning session (Mean shock/mean no shock). A two-factor (group, treatment) ANOVA, or one-way if not normally distributed, was conducted to analyze treatment differences in the mean activity burst.
Trace fear conditioning involves the imposition of a temporal gap between the termination of the CS and the onset of the aversive US stimulus. […] The strength and accuracy of this temporally guided fear memory can then be assessed during a test session, often presented 24 hours after trace conditioning. […]

[4] = tested on: KET mouse model of psychosis or schizophrenia-like behavior; experiment: Object recognition memory task after systemic (IP) SK channel activator; assay type: in vivo, mouse (male C57BL/6J); conditions: for discrimination ratio score, test session (Mdn): CyPPA 15.0 mg/kg IP 30 min pre-sample
Protocol: SK Drug Administration. To test the effect of the SK2 specific activator, CyPPA on long-term memory for objects, two KET groups and two SAL groups of male C57BL/6J mice were randomly assigned to receive either VEH or CyPPA (15.0 mg/kg) IP 30 min prior to the sample session of an object recognition memory task. Separate groups received CyPPA (7.5 mg/kg) IP or VEH 30 min prior to the sample session.
Arena Habituation. Mice were habituated to the arena prior to testing recognition memory. Thirty minutes prior to each arena habituation (AH) session, each mouse was restrained gently and momentarily, given a mock IP injection with a 26-gauge needle, and then placed into an empty polycarbonate cage. […] Afterwards, each mouse was returned to the polycarbonate cage and then returned to its home cage. Activity was recorded and automatically scored using Noldus Ethovision XT (version 7.0). Distance traveled was defined as the sum of recorded movement of the center point of the mouse in cm over the duration of the trial. Movement data from the AH sessions was used to match future treatment groups.
Sample Session. To examine the efficacy of activating SK channels on hippocampal long-term memory in the KET model of schizophrenia or psychosis-like cognitive deficits, an SK channel activator or vehicle (VEH, i.e., placebo) was administered to cohorts of saline (SAL) control mice or ketamine (KET)-exposed mice prior to the sample session of an object recognition task. Ten days after the final SAL or KET injection, mice received an IP injection of a SK channel activator or VEH, and then were placed individually in polycarbonate holding cages. Following a delay, the mouse was placed individually into the familiar arena for 10 min. Mice were permitted to freely explore two identical novel objects that were placed in opposite corners within the arena. […] The arena and objects were wiped down with 70% ethanol before each session to eliminate any odor cues that were present. Object exploration was defined as time (in s) that the mouse spent with its head oriented toward and within 2-3 cm of the object. The sample session ended after 10 min; at which time the mouse was returned to its home cage. Sample session behavior was video tracked via Ethovision XT and recordings were analyzed off-line to determine object exploration times for each mouse.
Test Session. Twenty-four hours following the sample session, mice were placed in a polycarbonate cage and then given a 10-min test session in the same arena as the sample session. Each mouse received a needle prick to simulate an IP injection before being placed in the polycarbonate holding cage for 30 min. For the test session, one of the previously encountered objects was replaced with a novel one (e.g., A, B, or C), as described above. To avoid place preference confounding behavioral responses, the objects were randomly replaced for the test session. The arena and objects were wiped down with 70% ethanol before each session to eliminate any odor cues that might affect behavioral responses during the test session.
Statistical Analysis. Object exploration was determined for each mouse based on the manual scoring of behavior from the recorded video files of the sample and test sessions. Scoring was done by experimenters who were blind to the treatment and group of the mice. Object memory was inferred from discrimination ratio scores, calculated for each mouse as the difference in time spent exploring the novel object minus the time spent exploring the familiar object, divided by the total time spent exploring both test objects (TNovel object−TFamiliar object/TNovel object+TFamiliar object). Discrimination ratio scores range from 1 to −1, with ratios greater than zero indicating preferential exploration of the novel object, and ratios less than zero indicating preferential exploration of the familiar object.

| SMILES | fear memory impairments [1] | discrimination ratio score, test session (M) [2] | discrimination ratio, test session (Mdn) [2] | object recognition memory vs KET/VEH [2] | performance during the tone test (retrieval) as stated in the Conclusions ([3]; KET mice given CyPPA vs KET mice given VEH) | discrimination ratio of % freezing (trace vs CS intervals) (Mdn) ([3]; KET mice) | temporal memory / attention in trace fear conditioning vs KET mice given VEH ([3]; KET mice, CyPPA 15.0 mg/kg IP 30 min pre-conditioning) | discrimination ratio of % freezing (trace vs CS intervals) (Mdn) ([3]; SAL mice) | conditioned freezing response vs SAL mice given VEH ([3]; SAL mice, CyPPA 15.0 mg/kg IP pre-conditioning) | discrimination ratio, test session (Mdn) ([4]; KET mice, CyPPA 7.5 mg/kg IP 30 min pre-sample, test 24 h later) | object recognition memory vs KET mice given VEH ([4]; KET mice, CyPPA 7.5 mg/kg IP pre-sample, test 24 h later) | discrimination ratio score, test session (Mdn) ([4]; KET mice, test 24 h later) | object recognition memory vs KET mice given VEH ([4]; KET mice, CyPPA 15.0 mg/kg IP pre-sample, test 24 h later) | discrimination ratio score, test session (Mdn) ([4]; SAL control mice, test 24 h later) | object memory vs SAL mice given VEH ([4]; SAL control mice, CyPPA 15.0 mg/kg IP pre-sample) |
| --- | --- | --- | --- | --- | --- | --- | --- | --- | --- | --- | --- | --- | --- | --- | --- |
| CCn1c(=O)[nH]c2ccccc21 [1-EBIO] | alleviated fear memory impairments | – | – | – | – | – | – | – | – | – | – | – | – | – | – |
| Cc1cc(NC2CCCCC2)nc(-n2nc(C)cc2C)n1 [CyPPA] | alleviated fear memory impairments | 0.354 | 0.398 | improved object recognition memory; also recorded: partial, albeit significant, rescue of object recognition memory | performed equivalently to KET mice given VEH | 0.21 | rescue of the attention or learning deficit; also recorded: significantly better than that of VEH-treated KET mice; also recorded: rescued temporal memory and attention | 0.13 | impaired acquisition of the conditioned freezing response; also recorded: exhibited impaired freezing compared to SAL mice given VEH | 0.079 | no rescue of KET-induced impaired object memory | 0.191 | rescued object recognition memory; also recorded: performed significantly better than VEH-treated KET mice; also recorded: significantly better object recognition memory performance | 0.381 | impaired object memory; also recorded: impaired the encoding and or consolidation of object memory |
